Test results published in patent publication US20220204493A1, “CRYSTALLINE FORM OF A BET-INHIBITOR AND MANUFACTURE THEREOF” (ORION CORPORATION, priority 2019, published 2022).
Each block holds one compound with its values, some of them ahead of it.

Columns and labels:
[1] = Relative stability study between crystalline form 1 and 2 (storage at stressed conditions, XRPD at time points); assay type: physicochemical
Experimental: The XRPD pattern of the crystalline form 1 of compound (I) was measured using a PANalytical X'Celerator θ-θ diffractometer with CuKα radiation (40 kV, 30 mA). The diffractometer was operated in reflection mode. The measurements were performed in the range of 3°-40° 2θ. 100-300 mg of the sample powder was placed in the sample holder and the surface was pressed. For comparison purposes, the XRPD pattern of an unmilled sample of crystalline form 1 and the XRPD pattern of a milled sample of crystalline form 1 are shown together in FIG. 3.
The XRPD pattern of the amorphic form and the crystalline form 2 of compound (I) were measured as above except that a small sample amounts (approximately 5-10 mg) were first placed in the centre of a zero-background sample holder and then gently spread to a thin layer.
(§1) Four samples of compound (I) in crystalline form 2 (with traces of form 1) prepared according to Example 10 were stored at stressed conditions. XRPD of each sample was recorded at initial time point and at further time points. Moreover, long term stability of crystalline form 1 of compound (I) at different storage conditions was studied.

[2] = Long-term stability of crystalline form 1 at different storage conditions (XRPD); assay type: physicochemical
Experimental: as §1

[3] = Hygroscopicity of crystalline form 1; assay type: physicochemical

Relative stability of the crystalline forms ([1]; all studied conditions): more stable than form 2 | Physical stability [2]: physically stable | Long-term stability, changes by XRPD ([2]; 25° C./RH 60 % and 40° C./RH 75 %): no changes were observed | Long-term stability (stable up to; no changes by XRPD) ([2]; storage 25° C./RH 60 %): Stable up to 24 months | Long-term stability (stable up to; no changes by XRPD) ([2]; storage 40° C./RH 75 %): Stable up to 6 months | Hygroscopicity [3]: low hygroscopicity
Compound: COc1cc2c(cc1-c1c(C)noc1C)cc(C)c(=O)n2Cc1ccccn1 [Crystalline form 1, 6-(3,5-dimethylisoxazol-4-yl)-7-methoxy-3-methyl-1-(pyridin-2-ylmethyl)quinolin-2(1H)-one]

melting point: 180 °C
Compound: COc1cc2c(cc1-c1c(C)noc1C)cc(C)c(=O)n2Cc1ccccn1 [amorphous compound (I), 6-(3,5-Dimethylisoxazol-4-yl)-7-methoxy-3-methyl-1-(pyridin-2-ylmethyl)quinolin-2(1H)-one]

Crystalline form found by XRPD ([1]; 25 °C/RH 60 %, 2 weeks): II + | Crystalline form found by XRPD ([1]; 25 °C/RH 60 %, 4 weeks): II + | Crystalline form found by XRPD ([1]; 25 °C/RH 60 %, 12 weeks): II + | Crystalline form found by XRPD ([1]; 25 °C/RH 60 %, 24 weeks): I + | Crystalline form found by XRPD ([1]; 25 °C/RH 60 %, initial): II + | Crystalline form found by XRPD ([1]; 30 °C/RH 65 %, 2 weeks): II + | Crystalline form found by XRPD ([1]; 30 °C/RH 65 %, 4 weeks): II + | Crystalline form found by XRPD ([1]; 30 °C/RH 65 %, 12 weeks): II + | Crystalline form found by XRPD ([1]; 30 °C/RH 65 %, 24 weeks): I + | Crystalline form found by XRPD ([1]; 30 °C/RH 65 %, initial): II + | Crystalline form found by XRPD ([1]; 40 °C/RH 75 %, 2 weeks): II + | Crystalline form found by XRPD ([1]; 40 °C/RH 75 %, 4 weeks): II + | Crystalline form found by XRPD ([1]; 40 °C/RH 75 %, initial): II + | Crystalline form found by XRPD ([1]; RT/RH 5 %, initial): II + | Time for transformation of form 2 to form 1 ([1]; all studied conditions): ≤ 36 weeks
Compound: COc1cc2c(cc1-c1c(C)noc1C)cc(C)c(=O)n2Cc1ccccn1 [crystalline form 2, 6-(3,5-dimethylisoxazol-4-yl)-7-methoxy-3-methyl-1-(pyridin-2-ylmethyl)quinolin-2(1H)-one]
